{"source": "paper PMC12858405", "about": "“Ideal efficacy photoswitching for chromocontrol of TRPC4/5 channel functions in live tissues” (Nature Chemical Biology, 2026)", "key": {"[1]": {"molecular_target": "T1, TRPC4 (Mus musculus, UniProt Q9QUQ5)", "T1 construct": "expressed in transfected cells; host or cells: HEK293", "T1 sequence (Q9QUQ5 1-890 isoform Q9QUQ5-2)": "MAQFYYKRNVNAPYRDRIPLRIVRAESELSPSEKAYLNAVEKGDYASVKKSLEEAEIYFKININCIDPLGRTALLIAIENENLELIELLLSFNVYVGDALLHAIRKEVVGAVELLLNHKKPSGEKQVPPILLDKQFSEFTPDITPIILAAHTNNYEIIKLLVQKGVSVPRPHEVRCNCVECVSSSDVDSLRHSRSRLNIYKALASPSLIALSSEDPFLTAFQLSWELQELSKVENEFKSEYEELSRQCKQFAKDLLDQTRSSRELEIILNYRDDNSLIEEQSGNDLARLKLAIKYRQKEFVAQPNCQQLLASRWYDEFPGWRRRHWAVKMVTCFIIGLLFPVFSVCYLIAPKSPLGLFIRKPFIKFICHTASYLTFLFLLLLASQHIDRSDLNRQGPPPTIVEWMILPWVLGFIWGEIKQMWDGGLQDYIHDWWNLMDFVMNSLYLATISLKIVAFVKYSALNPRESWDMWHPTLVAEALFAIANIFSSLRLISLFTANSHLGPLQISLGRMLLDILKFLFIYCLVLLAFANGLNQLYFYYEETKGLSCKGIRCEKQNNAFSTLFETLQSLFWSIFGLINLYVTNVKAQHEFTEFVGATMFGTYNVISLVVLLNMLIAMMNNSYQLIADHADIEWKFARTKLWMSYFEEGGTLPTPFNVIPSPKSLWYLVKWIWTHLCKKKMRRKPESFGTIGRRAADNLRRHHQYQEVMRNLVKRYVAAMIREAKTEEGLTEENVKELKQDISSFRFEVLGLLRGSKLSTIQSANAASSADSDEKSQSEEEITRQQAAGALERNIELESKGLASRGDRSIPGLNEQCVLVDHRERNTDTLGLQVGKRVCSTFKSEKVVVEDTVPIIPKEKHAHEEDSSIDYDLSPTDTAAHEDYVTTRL", "assay": "Whole-cell patch clamp with monochromated photoswitching, TRPC4-expressing HEK293 cells", "type": "cell-based", "conditions": "10 nM, Vh −80 mV, action spectrum 330-505 nm", "quoted_text": "We next performed electrophysiological patch clamp experiments to characterize the action and specificity of channel modulation in more detail. […] Secondly, electrophysiology readouts linearly and temporally resolve ionic currents through the activated channels, unlike the delayed and attenuated fluorometric Ca^2+ influx analyses in FLIPR. Thirdly, the electrophysiology setup can use narrow-bandwidth monochromated light at any wavelength.\nThe repeatability of on–off photocycling allowed us to extract action spectra for both (1) photoactivation (Fig. 2d,e) and (2) photodeactivation (Fig. 2f,g) in situ in live cells.\nThe advantage of the ephys setup is that freely chosen monochromated wavelengths can be used for photoswitching, while in parallel there is no optical imaging light to counteract these optimal wavelengths: and this allows for optimising the photoswitchability.\nrepeatability of on/off photocycling allowed us to extract action spectra for both (1) photoactivation (Fig. 2d,e) and (2) photodeactivation (Fig. 2f,g) in situ in live cells.\nphysiological whole-cell recordings of TRPC4 currents in voltage clamp mode (a,b,d-g: Vh = -80 mV; c: Vh scan)\nreturn to baseline currents throughout the applied voltage range. d-g, Spectral scans to extract the wavelength […]"}, "[2]": {"test_system": "TRPC5", "conditions": "ag. = agonistic effect; read-out: EC50 [nM] simple agonism, TRPC5; cited from earlier work"}, "[3]": {"molecular_target": "T2, EA-activated TRPC4 (Mus musculus, UniProt Q9QUQ5)", "T2 construct": "expressed in transfected cells; host or cells: HEK293-mTRPC4β-YFP", "T2 sequence (Q9QUQ5 1-890 isoform Q9QUQ5-2)": "T1 sequence (Q9QUQ5 1-890 isoform Q9QUQ5-2)", "assay": "FLIPR Ca2+ assay, E isomers silencing EA-activated TRPC4 (HEK293-mTRPC4β-YFP)", "type": "cell-based", "excerpt": "(2) The EC50 values are reported as the midpoints of unconstrained sigmoidal fits to the FLIPR data (Fig 1l and Supplementary Fig. 2): with different levels of channel activation / blocking and very different Hill slopes across different compounds, isomers, and the two channels. This argues that the midpoint values only capture one of the several important factors describing the […]\nWe believe that it is possible to derive indicative relative values for binding affinity comparing the E and Z isomers of the same compound using only the combination of FLIPR and ephys data as reported in this paper; this analysis is being developed in a separate paper (see also below).\nSupplementary Table 1. Potencies on TRPC4/5 depicted as either simple agonistic potency (blue) or else inhibitory […]\n. Z*-values refer to mostly-Z-isomer reached at PSS at 365 nm, E*-values refer to experiments that initially applied 100% E-isomer (thermally relaxed), though in both cases the Ca2+ imaging in FLIPR with Fluo4-AM uses 470 nm excitation, which may over time promote photoswitching towards a PSS that is intermediate between those of pure-365 nm and all-E; this is controlled for in the more reliable ephys measurements). (Table indices: a, data from ref7; b, data from ref2; c, data from ref3; d, data from ref8.) EC50 [nM] (for simple agonism or EA-competitive inhibition)\nE-AzPico 90 (vs 30 nM EA) 67 (vs 30 nM EA) […]\norange: inhibitory effect ag.: agonistic effect\n1.1.1 From always-active antagonists and agonists towards efficacy photoswitches […]\nphotoisomerising an azobenzene that is merged in at the C’4 position yielding the compounds […]\ndeliver (Fig. 1-2) is a powerful support for an efficacy switch interpretation. To indirectly support this further, we also measured the effects of E-AzPico and E-AzHC against EA-activated TRPC4/5. […]\nto be an EA-competitive binder5,9,10), so their efficacy as single agent photoswitches results from E/Z-competitive binding that is determined by their PSS. […]\nSupplementary Table 2. […] (a Inhibitory effect measured against 30 nM EA; b Inhibitory effect measured against 50 nM EA). […]"}}}
{"smiles": "Cn1c(=O)n(CCCO)c(=O)c2c1nc(Oc1ccc(N=Nc3ccccc3)c(OC(F)(F)F)c1)n2Cc1ccc(Cl)cc1", "note": "[AzPico]", "values": [{"measurement": "Wavelength range for effective off-photoswitching (channel currents)", "setting": "[1]", "value": "400-480 nm"}]}
{"smiles": "Cn1c(=O)n(CCCO)c(=O)c2c1nc(Oc1ccc(Cl)c(OC(F)(F)F)c1)n2Cc1ccc(Cl)cc1", "note": "[AM237, reference compound]", "values": [{"measurement": "EC50", "setting": "[2]", "value": 20, "unit": "nM"}]}
{"smiles": "Cn1c(=O)n(CCCO)c(=O)c2c1nc(Oc1ccc(/N=N/c3ccccc3)c(OC(F)(F)F)c1)n2Cc1ccc(Cl)cc1", "note": "[E-AzPico]", "values": [{"measurement": "IC50", "setting": "[3]; Inhibitory IC50 (versus 30 nM EA) TRPC4, E isomer, thermally relaxed, 30 nM EA", "value": 90, "unit": "nM"}, {"measurement": "IC50", "setting": "[3]; Inhibitory IC50 (versus 50 nM EA) TRPC4, E isomer, 50 nM EA", "value": 86, "unit": "nM"}]}
